Experimental data reported in patent US20020040027A1, “Method for the prevention of the reinfestation of warm-blooded animals by ectoparasites” (priority 1996, published 2002).

Legend:
[1] = test system: cat fleas [Ctenocephalides felis]; test: Flea control by oral administration of the active ingredient to the host animal (cats); assay type: in vivo; settings: cats infected with 100 cat fleas, treated orally on day 0 with 50 mg/kg of body weight (capsule); after 45 days
Procedure: Flea control by oral administration of the active ingredient to the host animal 20 cats with the proven ability permanently to maintain a flea population are divided into 6 groups: 5 groups each being composed of 3 or 4 animals and a sixth group, which serves as the control group, being composed of 2 animals. Each of the cats is infected with 100 cat fleas [Ctenocephalides felis]. The cats of the 5 groups are treated orally on day 0 with 50 mg of active ingredient per kg of body weight. The active ingredient is administered in the form of a capsule. The control group remains untreated. […] The eggs are counted and placed on a medium suitable for the growth of larvae and incubated. The number of pupae and fully grown fleas that develop is determined.

Amblyomma hebraeum = test: Tick control by subcutaneous administration of the active ingredient to the host animal (chicks); assay type: in vivo; settings: subcutaneously injected dose of 3 mg/kg of body weight, treated vs untreated chicks; for % reduction nymphs: nymphs moulted from collected larvae; for % reduction larvae: replete larvae
Procedure: Tick control by subcutaneous administration of the active ingredient to the host animal
13 day-old chicks of a fattened breed are infected with about 200 larvae of the tick species Amblyomma hebraeum and placed in pairs in cages. After three days, the chicks are injected subcutaneously with the active ingredient in an aqueous suspension. Within 2 to 6 days of the treatment, i.e. 5 to 9 days after infection, the replete tick larvae fall from the chicks can be collected and counted. The activity of the test compounds is calculated on the basis of the number of replete larvae on treated and untreated chicks in accordance with the formula [formula]
where Ct is the average number of larvae from treated chicks and Cu is the average number of larvae from untreated chicks.
In order to determine this type of activity, the replete larvae are kept, separated into treatment groups, in an incubator until all the larvae collected from untreated chicks have moulted. The activity is calculated using the above mentioned formula, with the average number of nymphs being used instead of the average number of larvae.
Reduction of more than + 80 % can be regarded as systemic action.

CCC1OCC(COc2ccc(Oc3cccc(F)c3)cc2)O1 (stereo not shown) [compound 3, 2-ethyl-4-[4-(3-fluorophenoxy)-phenoxymethyl]-1,3-dioxolane]
inhibition of the development of fleas [1]: 100%
% reduction nymphs (Amblyomma hebraeum): 80%
% reduction larvae (Amblyomma hebraeum): 78%

CC1(C)OCC(COc2ccc(Oc3cccc(F)c3)cc2)O1 (stereo not shown) [2-dimethyl-4-[4-(3-fluorophenoxy)-phenoxymethyl]-1,3-dioxolane]
inhibition of the development of fleas [1]: 100%

CCC1OCC(C)(COc2ccc(Oc3cccc(F)c3)cc2)O1 (stereo not shown) [compound 1, 2-ethyl-4-[4-(3-fluorophenoxy)-phenoxymethyl]-4-methyl-1,3-dioxolane]
% reduction nymphs (Amblyomma hebraeum): 83%
% reduction larvae (Amblyomma hebraeum): 83%

c1ccc(Oc2ccc(OCC3COC(C4CC4)O3)cc2)cc1 (stereo not shown) [compound 2, 2-cyclopropyl-4-[4-(phenoxy)-phenoxymethyl]-1,3-dioxolane]
% reduction nymphs (Amblyomma hebraeum): 83%
% reduction larvae (Amblyomma hebraeum): 82%

CC1(C)OCC(COc2ccc(Oc3cc(F)cc(F)c3)cc2)O1 (stereo not shown) [2-dimethyl-4-[4-(3,5-difluorophenoxy)-phenoxymethyl]-1,3-dioxolane]
inhibition of the development of fleas [1]: 100%

CC(C)C1OCC(COc2ccc(Oc3cc(F)cc(F)c3)cc2)O1 (stereo not shown) [4-[4-(3,5-difluorophenoxy)-phenoxymethyl]-2-isopropyl-1,3-dioxolane]
inhibition of the development of fleas [1]: 100%
